Assays:
[1] = tested on: DMS-114 cells (TP53 R213X); assay: G418-induced PTC readthrough (full-length p53, capillary electrophoresis Western) in DMS-114 cells; format: cell-based, human; conditions: for suppression of PTC readthrough induced by 400 μg/ml G418: 3 h preincubation with inhibitor, screen at two concentrations (Fig. 1C)
Description: (§1) Variation in PTC readthrough response has been reported among individuals or cell lines with different nonsense mutations. Although this in part highlights the importance of the stop codon and its surrounding sequence as well as the physical location of the nonsense mutation in the mRNA sequence, understanding the contribution of other underlying genetic variations becomes more complicated. To rule out the effect of the sequence and position of nonsense mutations on response variation to potential PTC readthrough modulators, we studied two cancer cell lines, DMS-114 and TC-71, with identical homozygous nonsense mutation R213X in their TP53 gene. […] To find out whether the reduced response to G418 in TC-71 cells was associated with lower intracellular levels of G418, we measured concentrations of G418 in both cell lines at 0, 8 and 24 h post exposure to G418 (100 μg/ml).
Figure 1 Effect of TRPC inhibitors on G418 induced PTC readthrough. A, DMS-114 and TC-71 cell lines with homozygous TP53 nonsense mutation (R213X) were exposed to indicated concentrations of G418 for 24 h and p53 levels (full-length, FL-p53; truncated, TR-p53) were measured. B, 100 μg/ml G418 was added to DMS-114 and TC-71 cells and its total intracellular levels were measured at indicated time points (n = 5; data normalized to the highest response in each experiment; bars represent mean ± SD). C, DMS-114 cells were preincubated with indicated concentrations of TRPC inhibitors GFB-8438 (GFB), SAR7334 (SAR), SKF96365 (SKF), 2-APB, or AC1903 for 3 h followed by exposure to 400 μg/ml G418 for another 3 h. At 24 h cell lysates were prepared and p53 levels were measured. In panels A and C, protein levels were measured by automated capillary electrophoresis Western analysis (using vinculin and GAPDH as loading controls). Samples of cell lysates containing equal amounts of total protein were loaded in all capillaries and FL-p53 levels were expressed relative to the amount of FL-p53 in untreated cells. ∗ indicates statistically significant difference between samples according to two-way ANOVA (p < 0.05). PTC, premature termination codon; TRPC, transient receptor potential canonical.
To further investigate AC1903 as a suppressor of G418-induced PTC readthrough, we exposed DMS-114 and TC-71 cells to various concentrations of AC1903 for 3 h prior to exposure to 400 μg/ml G418 for another 3 h, followed by media replacement and incubation for another 18 h.
(§2) Figure 2 Effect of AC1903 on PTC readthrough and G418 trafficking.A and B, DMS-114 (A) or TC-71 (B) cells were pretreated with indicated concentrations of AC1903 for 3 h followed by exposure to 400 μg/ml G418. After 3 h medium was replenished and at 24 h cell lysates were prepared and p53 levels were measured. C and E, DMS-114 (C) or JEB01 (E) cells were either left untreated or pretreated with 150 μM AC1903 for 3 h followed by exposure to indicated concentrations of G418 for another 3 h. At 24 h cell lysates were prepared and p53 (C) or Collagen XVII (E) levels were measured. In panels A–C, protein levels were measured by automated capillary electrophoresis Western analysis (using vinculin as loading control). In panel E, protein levels were measured by Western blot (using beta-actin as loading control). Samples of cell lysates containing equal amounts of total protein were loaded in all capillaries and FL-p53 or Collagen XVII levels were expressed relative to their respective amounts in untreated cells. D, total intracellular levels of G418 were measured in the same lysates as in (C) (n = 5; data normalized to the highest response in each experiment; bars represent mean ± SD). F, total intracellular levels of G418 were measured in the same lysates as in (E) (n = 2; data normalized to the highest response in each experiment; bars represent mean ± SD). ∗ indicates statistically significant difference between samples according to one-way ANOVA (p < 0.05). PTC, premature termination codon. […]

TC-71 cells (TP53 R213X) = assay: G418-induced PTC readthrough (full-length p53, capillary electrophoresis Western) in TC-71 cells; format: cell-based; conditions: increasing concentrations of G418, 24 h
Description: as §1
(§3) Figure 1 Effect of TRPC inhibitors on G418 induced PTC readthrough. A, DMS-114 and TC-71 cell lines with homozygous TP53 nonsense mutation (R213X) were exposed to indicated concentrations of G418 for 24 h and p53 levels (full-length, FL-p53; truncated, TR-p53) were measured. B, 100 μg/ml G418 was added to DMS-114 and TC-71 cells and its total intracellular levels were measured at indicated time points (n = 5; data normalized to the highest response in each experiment; bars represent mean ± SD). […]

TC-71 cells = assay: Measurement of intracellular G418 (gentamicin ELISA) in TC-71 cells; format: cell-based, human; conditions: 100 μg/ml G418
Description: as §1, §3

[2] = tested on: DMS-114 cells (TP53 R213X); assay: G418-induced PTC readthrough (full-length p53, capillary electrophoresis Western) in DMS-114 cells; format: cell-based, human
hTRPV4 = tested on: hTRPV4; parameters: method as in PMID 23136043, PMID 28523109; conditions: cited from earlier work
DMS-114 cells = assay: Measurement of intracellular G418 (gentamicin ELISA) in DMS-114 cells; format: cell-based, human; conditions: Pico145 up to 3 μM, 400 μg/ml G418 (Fig. 3B)
Description: as §2, with “Samples of cell lysates containing equal amounts of total protein were loaded in all capillaries and FL-p53 or Collagen XVII levels were expressed relative to their respective amounts in untreated cells.” left out, “0.05).” for “0.05). PTC, premature termination codon.”

NCCOB(c1ccccc1)c1ccccc1 [2-APB]
suppression of PTC readthrough induced by 400 μg/ml G418 [1]: ~66%

CN[C@@H]1[C@@H](O)[C@@H](O[C@@H]2[C@@H](O)[C@H](O[C@H]3O[C@H]([C@@H](C)O)[C@@H](O)[C@H](O)[C@H]3N)[C@@H](N)C[C@H]2N)OC[C@]1(C)O [G418]
increase in production of full-length p53 (readthrough product) compared with untreated cells ([1]; increasing concentrations of G418, 24 h): up to 144 fold | increase in PTC readthrough compared to untreated cells (TC-71 cells (TP53 R213X)): up to eightfold | intracellular G418 level lower in TC-71 compared with DMS-114 (TC-71 cells; 8 h post exposure): ~11% | intracellular G418 level lower in TC-71 compared with DMS-114 (TC-71 cells; 24 h post exposure): ~9%

O=C1CN(c2cn[nH]c(=O)c2Cl)CCN1Cc1ccccc1C(F)(F)F [GFB-8438]
suppression of PTC readthrough induced by 400 μg/ml G418 [1]: no effect

O=C(NC1(c2ccccc2)CC1)c1c(CN2CCC(N3CCCCC3)CC2)c(-c2cccc(C(F)(F)F)c2)nc2cc(Br)ccc12 [GSK2193874]
effect on full-length p53 production ([2]; 0.03–3 μM GSK2193874 alone or in combination with 400 μg/ml G418 (Fig. S12)): did not have a major effect | IC50 (hTRPV4): 40 nM

Cn1c(=O)n(CCCO)c(=O)c2c1nc(Oc1cccc(OC(F)(F)F)c1)n2Cc1ccc(Cl)cc1 [Pico145]
effect on intracellular G418 levels (DMS-114 cells): did not affect | effect on PTC readthrough ([2]; Pico145 up to 3 μM, 400 μg/ml G418 (Fig. 3A)): did not affect

N#Cc1ccc(O[C@@H]2c3ccccc3C[C@H]2N2CCC[C@@H](N)C2)c(Cl)c1 [SAR7334]
suppression of PTC readthrough induced by 400 μg/ml G418 [1]: no effect

COc1ccc(CCCOC(Cn2ccnc2)c2ccc(OC)cc2)cc1 (stereo not drawn) [SKF96365]
suppression of PTC readthrough induced by 400 μg/ml G418 [1]: ~33%

Reference: PMC8808171, “Nonselective TRPC channel inhibition and suppression of aminoglycoside-induced premature termination codon readthrough by the small molecule AC1903” (The Journal of Biological Chemistry, 2022)
